Laboratory results as given in publication PMC2394492 (British Journal of Cancer, 2003).

How the values were obtained:
[1] = cited from earlier work
[2] = test system: dihydropyrimidine dehydrogenase (DPD); details: in vitro; background statement, no reference given; cited from earlier work
[3] = target: T1, dihydropyrimidine dehydrogenase (DPD) (Homo sapiens, UniProt Q12882); test: Plasma uracil concentration as surrogate marker of DPD inhibition (pharmacodynamic analysis); type: in vivo; details: for AUC of uracil: 10 patients, surrogate marker of DPD inhibition
T1 construct: from tissue; host or cells: patients in vivo (DPD mainly in the liver); plasma sampled
T1 sequence (Q12882 4-1025): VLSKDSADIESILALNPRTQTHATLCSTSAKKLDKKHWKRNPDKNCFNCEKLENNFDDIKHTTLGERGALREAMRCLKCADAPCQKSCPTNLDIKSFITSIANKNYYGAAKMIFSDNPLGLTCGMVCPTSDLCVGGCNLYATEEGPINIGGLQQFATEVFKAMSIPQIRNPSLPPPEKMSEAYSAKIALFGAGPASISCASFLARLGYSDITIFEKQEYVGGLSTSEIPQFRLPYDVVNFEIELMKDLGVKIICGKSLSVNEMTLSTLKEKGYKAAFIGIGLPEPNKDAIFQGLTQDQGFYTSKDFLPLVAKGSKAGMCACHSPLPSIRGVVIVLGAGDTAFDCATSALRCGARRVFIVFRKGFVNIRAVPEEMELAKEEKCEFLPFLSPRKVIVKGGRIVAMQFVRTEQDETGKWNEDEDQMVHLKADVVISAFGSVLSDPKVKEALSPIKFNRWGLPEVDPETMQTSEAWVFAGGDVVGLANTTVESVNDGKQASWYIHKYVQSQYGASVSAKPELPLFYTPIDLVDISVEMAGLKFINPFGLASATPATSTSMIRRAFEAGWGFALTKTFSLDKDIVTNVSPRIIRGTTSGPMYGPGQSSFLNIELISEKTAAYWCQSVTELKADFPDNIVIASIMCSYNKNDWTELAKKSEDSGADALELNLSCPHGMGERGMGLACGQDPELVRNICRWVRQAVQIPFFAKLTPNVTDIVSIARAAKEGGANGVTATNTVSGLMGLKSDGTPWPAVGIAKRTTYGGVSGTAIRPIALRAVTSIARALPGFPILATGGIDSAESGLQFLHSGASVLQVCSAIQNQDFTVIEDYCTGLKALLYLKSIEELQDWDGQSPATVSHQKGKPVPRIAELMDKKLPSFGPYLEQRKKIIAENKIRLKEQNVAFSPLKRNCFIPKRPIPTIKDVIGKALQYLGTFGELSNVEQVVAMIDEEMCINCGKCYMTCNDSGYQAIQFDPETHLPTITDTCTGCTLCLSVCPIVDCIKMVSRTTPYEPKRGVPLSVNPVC
Protocol: All 10 patients received 5-FU by PVI at a rate of 250 mg m^−2 day^−1 via a peripheral vein. Infusion was carried out with the use of a battery-operated pump (STC-508, Terumo Co., Ltd., Tokyo, Japan) for five consecutive days. The assigned daily dose of 5-FU was diluted in 500 ml of normal saline for infusion.
On days 1 and 5 of 5-FU PVI, blood samples were taken at 0 (before administration), 2, 6, and 10 h after the start of the infusion (0900 hours in all patients). On days 2–4, one blood sample was obtained at 0900 hours before the start of the next 24-h cycle. […] On day 5, blood samples were obtained at 0, 2, […], and 10 h. Peripheral blood samples (6 ml per sampling time) were collected in heparinised tubes and centrifuged at 1000 g for 15 min at 4°C. The plasma was stored at −20°C until analysis. Urine was collected from 0 to 24 h after the start of drug administration on day 1 of each treatment and refrigerated during the collection period.
Analysis of 5-FU and uracil was carried out as described by [Matsushima et al (1997)], with minor modification. 5-Fluorouracil and uracil were extracted with ethyl acetate after washing with dichloromethane and were subjected to a reaction to induce their trimethylsilyl derivatives. 5-Fluorouracil and uracil were analysed by electron impact ionisation gas-chromatography/mass-spectrometry (GC–MS). For analysis of 5-FU by GC–MS, stable isotopes were used as internal standards. The measurable ranges of plasma or urine levels were 1–400 ng ml^−1 for 5-FU and 5–2000 ng ml^−1 for uracil. For analysis of FBAL, plasma was deproteinised with ethanol and washed with dichloromethane. F-β-alanine was treated with 2,4-dinitrofluorobenzene to derive its dinitrophenyl ester, and the reaction product was extracted with dichloromethane under acidic conditions. The reaction product was separated by high-pressure liquid chromatography (LC) with a reversed-phase column, and LC/tandem-mass spectrometry was performed with the use of negative ion-electron spray ionisation. DL-norvaline was used as an internal standard. […]

[4] = Plasma pharmacokinetics of 5-FU and FBAL after PVI of 5-FU and oral S-1 in patients; type: in vivo, human
Protocol: Infusion was carried out with the use of a battery-operated pump (STC-508, Terumo Co., Ltd., Tokyo, Japan) for five consecutive days. […] After a washout period of 9 days, patients received S-1 in two divided doses daily for 28 consecutive days. S-1 was administered orally within 1 h after breakfast and supper, at about 0900 and 1900 hours The daily dose of S-1 in terms of tegafur was 80 mg day^−1 in patients with a body surface area (BSA) of <1.25 m^2, 100 mg day^−1 in those with a BSA of ⩾1.25 m^2 to <1.5 m^2, and 120 mg day^−1 in those with a BSA of ⩾1.5 m^2.
On days 2–4, one blood sample was obtained at 0900 hours before the start of the next 24-h cycle. During oral administration of S-1, blood samples were taken on day 1 before the first dose of the day and at 1, 2, 4, 6, and 10 h. On days 2–4 of S-1 treatment, blood samples were taken before administration in the morning and at 4 and 10 h. On day 5, blood samples were obtained at 0, 2, 4, and 10 h. Peripheral blood samples (6 ml per sampling time) were collected in heparinised tubes and centrifuged at 1000 g for 15 min at 4°C. The plasma was stored at −20°C until analysis. Urine was collected from 0 to 24 h after the start of drug administration on day 1 of each treatment and refrigerated during the collection period.

[5] = patients given 5-FU by PVI, ref Lokich et al, 1989

Structure (SMILES): CCCCCOC(=O)Nc1nc(=O)n([C@@H]2O[C@H](C)[C@@H](O)[C@H]2O)cc1F [capecitabine]
- incidence of grade 3 HFS ([1]; capecitabine, ref Van Cutsem et al, 2000, 2001, Hoff et al, 2001): 15–18%
- incidence of HFS ([1]; capecitabine, ref Van Cutsem et al, 2000): 45%
- incidence of cardiotoxicity ([1]; randomised phase II trial, metastatic colorectal cancer, five out of 108, ref Van Cutsem et al, 2000): 5%
- incidence of paresthesia ([1]; randomised phase II trial, metastatic colorectal cancer, ref Van Cutsem et al, 2000): 12%

Structure (SMILES): Oc1cc(O)c(Cl)cn1 [CDHP, 5-chloro-2,4-dihydroxypyridine]
- DPD-inhibitory activity relative to that of uracil [2]: 180 fold

Structure (SMILES): O=c1[nH]cc(F)c(=O)[nH]1 [5-FU, 5-fluorouracil]
- dose-limiting toxicity (DLT) ([1]; 5-FU by PVI, ref Lokich et al, 1989): HFS
- incidence of grade 3 leukopenia [1, 5]: 1%
- incidence of hand–foot syndrome [1, 5]: about 23%
- incidence of stomatitis [1, 5]: about 23%
- AUC of uracil ([3]; Day 1, 0 to 10 h): 200 ± 60 ng·h/mL
- AUC of uracil ([3]; Day 5, 0 to 10 h): 252 ± 60 ng·h/mL
- AUC0–10 h of uracil ([3]; day 5 (abstract)): 252 ± 60 ng·h/mL
- time to steady state of plasma 5-FU concentration after the start of PVI ([4]; PVI of 5-FU): 2 h
- AUC0–10 h of 5-FU ([4]; plasma, day 5 (abstract)): 728 ± 113 ng·h/mL
